System: MCF7 cells
Experiment: Tumorsphere formation assay, MCF7
Assay type: cell-based, Human
Details: five days, vs vehicle
Experimental: A single cell suspension was prepared using enzymatic (1× Trypsin-EDTA, T3924, Sigma Aldrich), and manual disaggregation (25 gauge needle). Cells were plated at a density of 5000 cells/well in tumorsphere media (DMEM-F12/B27/EGF (20ng/ml)/Pen-Strep) in non-adherent conditions, in 6-well plates coated with (2-hydroxyethylmethacrylate) (poly-HEMA, P3932, Sigma) in the presence of mDIVI1 or vehicle. After 5 days of culture in a humidified incubator at 37° C, tumorspheres bigger than 50 μm were counted using an eye piece graticule.

For `COc1cc(-n2c(=S)[nH]c3ccccc3c2=O)c(Cl)cc1Cl` [mDIVI1, 3-(2,4-Dichloro-5-methoxyphenyl) 2,3-dihydro 2-thioxo-4(1H) quinazolinone], the “decrease of MCF7 tumorsphere number” value (10 µM) was 50%, the “decrease of MCF7 tumorsphere number” value (50 µM) was 80% and the “decrease of MCF7 tumorsphere number” value (100 µM) was 95%.

From article PMC5862576, “Mitochondrial fission as a driver of stemness in tumor cells: mDIVI1 inhibits mitochondrial function, cell migration and cancer stem cell (CSC) signalling” (Oncotarget, 2018)
